# Experimental data as given in PMC7913412, “Identification and characterization of heteroclitic peptides in TCR-binding positions with improved HLA-binding efficacy” (Journal of Translational Medicine, 2021).
# Biological target: H2-Db molecule (Mus musculus, UniProt P01899)
# Assay: Peptide binding affinity assay on TAP-deficient RMA-S cells (anti-H-2Db staining, flow cytometry)
# Assay type: cell-based
# Details: 3 x 10^5 cells/well, peptide 1, 5, 10 μM, 4 h at 37 °C, anti-H-2Db antibody, flow cytometry MFI, triplicate
# Method: Peptide binding affinity to H2-Db molecule was performed for each selected peptide. Tap-deficient mouse derived H-2Db RMA-S cells were cultured for 24 h at 26 °C to accumulate empty MHC-I molecules on the cell surface. Cells were washed in serum-free medium and incubated at 3 × 10^5 cells/well with varying concentrations of peptides (1 μM, 5 μM, 10 μM) for 4 h at 37 °C with 5% CO2. Cells were harvested, washed with phosphate-buffered saline (1 × PBS; Gibco Life Technologies), stained with anti-H-2Db fluorescent monoclonal antibody (cat. 1157535; SONY) and analyzed by flow cytometry. All the experiments were performed in triplicate.
# In order to experimentally confirm the binding of heteroclitic peptides to H-2 Db molecule, the H-2 Db positive RMA-S cell line was loaded with different concentrations (1 μM, 5 μM, 10 μM) of selected heteroclitic peptides modified in p4 with a predicted affinity higher than the wt peptide.
# H2-Db molecule, sequence (P01899 whole entry, looked up): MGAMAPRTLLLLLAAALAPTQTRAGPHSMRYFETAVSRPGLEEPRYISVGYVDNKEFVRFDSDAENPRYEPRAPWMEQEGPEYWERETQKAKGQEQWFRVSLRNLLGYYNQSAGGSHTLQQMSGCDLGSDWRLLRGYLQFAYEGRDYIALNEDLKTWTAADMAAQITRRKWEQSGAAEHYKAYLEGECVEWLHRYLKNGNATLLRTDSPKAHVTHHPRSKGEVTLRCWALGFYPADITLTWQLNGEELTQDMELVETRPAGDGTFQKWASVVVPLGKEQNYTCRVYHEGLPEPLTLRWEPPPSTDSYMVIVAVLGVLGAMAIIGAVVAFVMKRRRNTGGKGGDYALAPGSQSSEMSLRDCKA
row,Sequence,Binding to H-2Db compared with the wt peptide (in words)
1,"RAHWNIVTF [RAHWNIVTF (MUT418), heteroclitic HPV-E7 peptide, Trp at p4]",strongest binding
2,"SVYCFFVWL [SVYCFFVWL (MUT41), heteroclitic Trp2 peptide, Cys at p4]",binding lower than the wt
3,"SVYEFFVWL [SVYEFFVWL (MUT42), heteroclitic Trp2 peptide, Glu at p4]",binding lower than the wt
4,"SVYWFFVWL [SVYWFFVWL (MUT417), heteroclitic Trp2 peptide, Trp at p4]",binding lower than the wt
